Data as given in patent publication US20210255168A1, “A METHOD OF PRECISION CANCER THERAPY” (KING FAISAL SPECIALIST HOSPITAL & RESEARCH CENTRE, priority 2018, published 2021).

System: MDA-MB-231 cells
Test: Proliferation assay (RTCA)
Format: cell-based
Conditions: MDA-MB-231, 300 nM, vs DMSO
Method: MDA-MB-231 cells were seeded in 6-well cell culture plates and incubated overnight. The cells were treated with the selected protein kinase inhibitors and incubated overnight. Then they were reseeded onto the invasion chamber in serum-free media at a density of 2×10^4 cells per well using 16-well CIM-Plate in Real-Time Cell Analysis (RTCA) Dual Plate (DP) Analyzer (ACEA Bioscinece, California, USA) that was loaded inside the incubator. The lower chambers to which cells will migrate were prepared to contain chemoattractant consisted of 10% FBS. For invasion assays, Matrigel (BioCoat, BD Biosciences, MA) which resembles the complex extracellular environment found in many tissues was prepared and used to coat the upper chamber of CIM plates. Invasion and migration were monitored continuously over 72-hour period using RTCA Software (ACEA Bioscinece, California, USA). The RTCA Instrument automatically monitors the cells every 15 minutes for 100 repetitions. For proliferation assays, the same principle was applied using a single chamber containing complete DMEM media (FIG. 10).
Based on the dose-response curve, 330 nM was selected to be used as a standard dose for the experiments. In the invasion assay, MDA-MB-231 cells were treated with volasertib or DMSO for 24 hr, then invasion was monitored for 30 hr.

## CC[C@@H]1C(=O)N(C)c2cnc(Nc3ccc(C(=O)N[C@H]4CC[C@H](N5CCN(CC6CC6)CC5)CC4)cc3OC)nc2N1C(C)C [volasertib]
  proliferation: significantly reduced
